According to the NIST ThermoML archive (doi:10.1021/acs.jced.8b00524):
Numbers after ± are expanded uncertainties.

What was measured:
[1] = 100 kPa, Liquid; for viscosity: Concentric cylinders viscometry; for mass density: Vibrating tube method
[2] = xn = mol fraction of the nth substance listed; settings: 100 kPa, Liquid; for viscosity: Concentric cylinders viscometry; for mass density: Vibrating tube method

CCCCCCCCO [octan-1-ol]
[1]
Settings	mass density [kg/m3]	viscosity [mPa·s]
293.15 K	824.9 ± 10	9.13 ± 0.46
298.15 K	821.4 ± 10	7.62 ± 0.38
303.15 K	817.9 ± 10	6.41 ± 0.32
308.15 K	814.4 ± 10	5.43 ± 0.27
313.15 K	810.9 ± 10	4.63 ± 0.23
318.15 K	807.3 ± 10	3.98 ± 0.2
323.15 K	803.7 ± 10	3.44 ± 0.17

CCCCOC(C)=O [butyl ethanoate] + CCCCCCCCCO
[2], x1 = 1
Settings	mass density [kg/m3]	viscosity [mPa·s]
293.15 K	881.1 ± 10	0.732 ± 0.037
298.15 K	876 ± 10	0.677 ± 0.034
303.15 K	870.9 ± 10	0.628 ± 0.032
308.15 K	865.7 ± 10	0.585 ± 0.03
313.15 K	860.5 ± 10	0.546 ± 0.028
318.15 K	855.3 ± 10	0.512 ± 0.026
323.15 K	850.1 ± 10	0.485 ± 0.025

CCCCCCCCO [octan-1-ol] + CCCCOC(C)=O
[2], x2 = 0
Settings	mass density [kg/m3]	viscosity [mPa·s]
293.15 K	824.9 ± 10	9.13 ± 0.46
298.15 K	821.4 ± 10	7.62 ± 0.38
303.15 K	817.9 ± 10	6.41 ± 0.32
308.15 K	814.4 ± 10	5.43 ± 0.27
313.15 K	810.9 ± 10	4.63 ± 0.23
318.15 K	807.3 ± 10	3.98 ± 0.2
323.15 K	803.7 ± 10	3.44 ± 0.17

CCCCCCCCCCO [decan-1-ol]
[1]
Settings	mass density [kg/m3]	viscosity [mPa·s]
293.15 K	829.5 ± 10	14.42 ± 0.72
298.15 K	826.1 ± 10	11.8 ± 0.59
303.15 K	822.7 ± 10	9.76 ± 0.49
308.15 K	819.3 ± 10	8.14 ± 0.41
313.15 K	815.8 ± 10	6.84 ± 0.34
318.15 K	812.4 ± 10	5.8 ± 0.29
323.15 K	808.9 ± 10	4.96 ± 0.25

CCCCOC(C)=O [butyl ethanoate] + CCCCCCCCCCO
[2], x1 = 1
Settings	mass density [kg/m3]	viscosity [mPa·s]
293.15 K	881.1 ± 10	0.732 ± 0.037
298.15 K	876 ± 10	0.677 ± 0.034
303.15 K	870.9 ± 10	0.628 ± 0.032
308.15 K	865.7 ± 10	0.585 ± 0.03
313.15 K	860.5 ± 10	0.546 ± 0.028
318.15 K	855.3 ± 10	0.512 ± 0.026
323.15 K	850.1 ± 10	0.485 ± 0.025

CCCCCCO [hexan-1-ol]
[1]
Settings	mass density [kg/m3]	viscosity [mPa·s]
293.15 K	818.7 ± 10	5.37 ± 0.27
298.15 K	815.1 ± 10	4.58 ± 0.23
303.15 K	811.5 ± 10	3.94 ± 0.2
308.15 K	807.9 ± 10	3.4 ± 0.17
313.15 K	804.2 ± 10	2.95 ± 0.15
318.15 K	800.6 ± 10	2.58 ± 0.13
323.15 K	796.8 ± 10	2.26 ± 0.11

CCCCCCO [hexan-1-ol] + CCCCOC(C)=O
[2], x2 = 0
Settings	mass density [kg/m3]	viscosity [mPa·s]
293.15 K	818.7 ± 10	5.37 ± 0.27
298.15 K	815.1 ± 10	4.58 ± 0.23
303.15 K	811.5 ± 10	3.94 ± 0.2
308.15 K	807.9 ± 10	3.4 ± 0.17
313.15 K	804.2 ± 10	2.95 ± 0.15
318.15 K	800.6 ± 10	2.58 ± 0.13
323.15 K	796.8 ± 10	2.26 ± 0.11

CCCCCCCO [heptan-1-ol]
[1]
Settings	mass density [kg/m3]	viscosity [mPa·s]
293.15 K	822.2 ± 10	7.03 ± 0.35
298.15 K	818.7 ± 10	5.92 ± 0.3
303.15 K	815.2 ± 10	5.03 ± 0.25
308.15 K	811.6 ± 10	4.3 ± 0.22
313.15 K	808 ± 10	3.71 ± 0.19
318.15 K	804.4 ± 10	3.21 ± 0.16
323.15 K	800.7 ± 10	2.79 ± 0.14

CCCCCCCCCO [nonan-1-ol]
[1]
Settings	mass density [kg/m3]	viscosity [mPa·s]
293.15 K	827.5 ± 10	11.41 ± 0.57
298.15 K	824 ± 10	9.43 ± 0.47
303.15 K	820.5 ± 10	7.86 ± 0.39
308.15 K	817.1 ± 10	6.61 ± 0.33
313.15 K	813.6 ± 10	5.59 ± 0.28
318.15 K	810.1 ± 10	4.78 ± 0.24
323.15 K	806.5 ± 10	4.1 ± 0.21

CCCCOC(C)=O [butyl ethanoate]
[1]
Settings	mass density [kg/m3]	viscosity [mPa·s]
293.15 K	881.1 ± 10	0.732 ± 0.037
298.15 K	876 ± 10	0.677 ± 0.034
303.15 K	870.9 ± 10	0.628 ± 0.032
308.15 K	865.7 ± 10	0.585 ± 0.03
313.15 K	860.5 ± 10	0.546 ± 0.028
318.15 K	855.3 ± 10	0.512 ± 0.026
323.15 K	850.1 ± 10	0.485 ± 0.025

CCCCOC(C)=O [butyl ethanoate] + CCCCCCCO
[2], x1 = 1
Settings	mass density [kg/m3]	viscosity [mPa·s]
293.15 K	881.1 ± 10	0.732 ± 0.037
298.15 K	876 ± 10	0.677 ± 0.034
303.15 K	870.9 ± 10	0.628 ± 0.032
308.15 K	865.7 ± 10	0.585 ± 0.03
313.15 K	860.5 ± 10	0.546 ± 0.028
318.15 K	855.3 ± 10	0.512 ± 0.026
323.15 K	850.1 ± 10	0.485 ± 0.025
